Measured values: article PMC9061822, “A novel SRSF3 inhibitor, SFI003, exerts anticancer activity against colorectal cancer by modulating the SRSF3/DHCR24/ROS axis” (Cell Death Discovery, 2022)
Read-outs that look alike come from different tables or passages of the source.

What was measured:
Akt-mTOR pathway = experiment: WB of p-Akt and p-mTOR in HCT-116 and SW480 cells; type: cell-based, Human; settings: HCT-116 and SW480, 20 μM, 72 h
Description: (§1) After cell lysates were prepared, protein concentrations were determined by a BCA assay (TaKaRa, Kusatsu, Japan). Equal amounts of protein were separated by SDS–PAGE and transferred to polyvinylidene difluoride membranes. After normalization, the blots were probed with appropriate antibodies, as described previously.

[1] = Serum biochemical analysis / tolerability in treated mice; type: in vivo
Description: (§2) To explore the effect of SFI003 on the growth of CRC, approximately 3 × 10^6 HCT-116 cells or 8 × 10^6 SW480 cells were collected and mixed with Matrigel (Corning, NY, USA) at a 1:1 ratio by volume and then injected into the lower back region of mice. When tumors were palpable, mice were randomly divided into four groups. One group received vehicle as a control, while the other three groups were orally administered SFI003 at a dosage of 100 or 200 mg/kg or capecitabine at a dosage of 100 mg/kg for two continuous weeks. The tumor sizes and mouse body weights were monitored every other day. At the end of the experiment, tumors and blood samples were collected for further studies. The tumor size was evaluated according to Eq.: tumor size (mm^3) = (length × width^2) × 0.5.

SRSF3 = biological target: T1, SRSF3 (Homo sapiens, UniProt P84103); experiment: Western blot of SRSF3 protein in HCT-116 and SW480 cells; type: cell-based; parameters: endogenous in cells; host or cells: HCT-116 and SW480; settings: HCT-116 and SW480 cells, various doses, 72 h
T1 sequence (P84103 1-164): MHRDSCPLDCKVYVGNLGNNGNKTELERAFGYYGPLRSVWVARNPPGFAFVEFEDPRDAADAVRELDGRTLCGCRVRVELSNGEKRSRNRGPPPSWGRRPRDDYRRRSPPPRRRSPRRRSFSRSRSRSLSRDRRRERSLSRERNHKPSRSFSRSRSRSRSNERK
Description: as §1

[2] = Metabolic stability in human liver microsomes; type: in vitro ADME
DHCR24 = experiment: RT-PCR and WB of DHCR24 in HCT-116 and SW480 cells; type: cell-based, Human; settings: HCT-116 and SW480, 20 μM, 72 h
Description: (§3) HCT-116 and SW480 cells were transfected with 100 nM siRNA for 48 h or treated with SFI003 for 72 h. Total RNA was isolated by using TRIzol (Invitrogen, CA, USA) according to the manufacturer’s instructions and then was reversely transcribed into cDNA with random primers (TaKaRa, Kusatsu, Japan) and RT-Kit (Thermo, CA, USA). The cDNA was amplified by PCR using the primers listed in Supplementary Table 1.
as §1

HCT-116 xenografts = HCT-116 xenografts in SCID mice; type: in vivo; settings: two weeks; for number of tumors that disappeared: HCT-116 xenografts
Description: as §2

[3] = Pharmacokinetics in ICR mice; type: in vivo; settings: mouse, plasma
Description: 29 the blood samples by centrifuging at 5,000 rpm under 4℃ for 5 min. […]
33 or tissue sample was added into 100 µl acetonitrile containing internal standard
34 Tolbutamide. The mixture was vortexed for 3 min and centrifuged at 13,000 rpm for 10
35 min. An aliquot of 10 µl resulting supernatant was injected to LC -MS/MS system
36 (API4000 QTrap; AB Sciex) for compound analysis. The analytes were separated in a
37 Venusil XBP-C18 column (2.1×50 mm, 5 μm; Agela, China) using the mixture of 5mM
38 NH4OAc-0.1% formic acid (A) and methanol (B) as mobile phase. The gradient
39 condition was: 1.3 min, 2%B; 2.0 min, 90%B; 3.5 min, 90%B; 3.8 min, 2%B. The elutes
40 were detected by MS/MS spectrometry using ESI positive mode with m/z 271.1>172.2,
42 SFI003. […]
52 Druggability evaluation of SFI003
53 Next, we evaluated the druggability of SFI003. We first examined the
54 pharmacokinetic properties of SFI003 in mice. We measured the plasma concentration
55 of SFI003 in mice after oral administration of 100 mg/kg SFI003.

SW480 cells = experiment: MTT assay in SW480 cells; type: cell-based, Human
Description: Human CRC cell lines were purchased from the American Type Culture Collection (VA, USA). HCT-116 cells were cultured in DMEM (HyClone, Utah, USA) containing 10% fetal bovine serum (FBS; Gibco, NY, USA). SW480 cells were cultured in RPMI 1640 medium (HyClone, Utah, USA) containing 10% FBS. All cells were cultured in an incubator (Thermo, CA, USA) at a constant temperature of 37 °C and 5% CO2. N-Acetylcysteine (NAC), Trolox, MLN4924, 5-Fu, and capecitabine were purchased from MedChemExpress LLC (Shanghai, China). MG132 was purchased from Santa Cruz Biotech (CA, USA). Chloroquine (CHQ) was purchased from Sigma (CA, USA). Rapamycin was purchased from Beyotime (Shanghai, China). Primary antibodies against SRSF3 and E-Cadherin were purchased from Abcam (Cambridge, UK). Primary antibodies against N-Cadherin, Caspase 3, DHCR24, CAT, Akt and phospho-Akt (Ser473) were purchased from Cell Signaling Technology (MA, USA). Primary antibodies against β-actin, mTOR, and phospho-mTOR ([…]) were purchased from Beyotime (Shanghai, China). Primary antibody against Vimentin was purchased from Proteintech (Wuhan, China). Primary antibody against Bcl-2 was purchased from Santa Cruz Biotech (CA, USA). Primary antibody against Flag was purchased from MBL Beijing Biotech (Beijing, China). CRC cells were transfected with 100 nM siRNA or treated with various doses of SFI003 for 24 h, 48 h, or 72 h before being subjected to MTT assay as described previously.

[4] = Metabolic stability in rat liver microsomes; type: in vitro ADME
[5] = test system: CCDC50S, p53α and p53β mRNA; experiment: RT-PCR of SRSF3 target gene mRNA in HCT-116 and SW480 cells; type: cell-based, Human; settings: 20 μM, 72 h
Description: as §3

[6] = Pharmacokinetics in ICR mice; type: in vivo; settings: mouse, plasma, iv, 10 mg/kg
[7] = SFI003-treated tumor-bearing mice
[8] = read-out: intrinsic clearance (converted)

## COc1ccc(-c2csc(N/N=C(\C)c3nc4ccccc4[nH]3)n2)cc1 [SFI003]
Akt-mTOR pathway
  activities of Akt (p-Akt) and mTOR (p-mTOR): inhibited
[1]; [7]
  serum ALP, ALT, AST, GGT: no alteration
  serum CRE and URE: moderate
[1]; mice
  tolerability in vivo: well tolerated
SRSF3
  level of SRSF3 protein: apparently reduced
[2]
  half time: 31.50 min
[2]; [8]
  CLint scaled: 3.31 L/h/kg
DHCR24
  DHCR24 mRNA and protein: inhibited
HCT-116 xenografts; 100 or 200 mg/kg orally, dose-dependent
  growth of HCT-116 xenografts: efficiently suppressed
HCT-116 xenografts; 100 mg/kg orally, 100 mg/kg
  number of tumors that disappeared: two and two of six
HCT-116 xenografts; 200 mg/kg orally
  number of tumors that disappeared: three
[3]; oral, p.o. 100 mg/kg vs i.v. 10 mg/kg, read-out: F (bioavailability)
  bioavailability: 52.5%
[3]; po, 100 mg/kg
  AUC(0-inf): 30.9 µg·h/mL
  AUC(0-t): 30.9 µg·h/mL
  Tmax: 2 h
  half-life: 1.86 h
  Cmax: 4.44 µg/mL
[3]; po, 100 mg/kg, read-out: MRTINF_obs
  MRT inf: 4.66 h
SW480 cells; Homo sapiens, SW480 cells, 72 h
  IC50: 48.7 µM
SW480 cells; SW480, SRSF3 siRNA 24 h, then 50 μM for 72 h
  cytotoxicity after SRSF3 silencing: eliminated
SW480 cells; SW480, various doses, 24, 48 and 72 h
  inhibition of proliferation: dose- and time-dependent
[4]
  half time: 53.31 min
[4]; [8]
  CLint scaled: 2.8 L/h/kg
[5]
  mRNA level of CCDC50S: markedly reduced
  mRNA level of p53α: markedly reduced
  mRNA level of p53β: elevated
[6]
  AUC(0-inf): 5.89 µg·h/mL
  AUC(0-t): 5.89 µg·h/mL
  half-life: 0.4 h
[6]; read-out: MRTINF_obs
  MRT inf: 0.44 h
[6]; read-out: Vss
  Vd: 0.75 L/kg
